Results on one substance are retold here after US20080015147A1, “Method for inhibiting neuronal cell death” (priority 2006, published 2008).

“Also recorded” adds a separate entry of the source.

Type in all cases: cell-based, mouse
The test system of one assay is cleaved caspase 3. Briefly: Caspase 3 cleavage by immunoblot. As to conditions: 48 hr; any pH condition for TCAP-1. The method, then:
Detection of caspase 3 cleavage was determined at 48 hrs. The samples at each pH and control (see above) were lysed using total protein isolation lysis buffer (described above). An aliquot of 25 μl of each sample was combined with 25 μl of 2×20% sodium dodecyl sulphate (SDS) sample buffer and loaded onto a 4-10% HCL-Tris pre cast polyacrylamide gel (BioRad, Mississauga). The gel was run at 200 v for 35 min and proteins were electrotransfered to a Hybond-C nitrocellulose membrane (Amersham, Baie d'Urfé) for 75 min at 100 v. After transfer, the membrane was washed with 10 ml of PBS with 0.05% Tween 20 (PBST) for 5 min at room temperature (RT) and the membrane was incubated in 10 ml of PBST-milk for one hour at RT followed by 3 times for 5 min washes with 10 ml of PBST. The membrane was then incubated with cleaved caspase 3 primary antibody (Cell Signaling Technology, Beverly) at a titre of 1:500 in 6 ml of PBST-milk with gentle agitation overnight at 4° C. The membranes were washed 3 times for 5 min with 10 ml of PBST followed by membrane incubation with anti-rabbit horseradish peroxidase (HRP)-conjugated secondary antibody (Amersham, Baie d'Urfé) at 1:3000 in 6 ml of PBST-milk with gentle agitation for 1 hr at RT. […]
On the technique in general: A western blot detects proteins with antibodies after separation by electrophoresis.

A further assay concerns N38 cells. Briefly: Cell proliferation by direct hemocytometer counts. As to conditions: for total cell numbers relative to vehicle: 48 hrs, 2×10^−7 M. As to the method:
At 24 and 48 hrs, the medium was replaced with medium buffered at pH 6.8, 7.4, 8.0 or 8.4. Half of the cell groups received (2×10^−7 M) TCAP-1, whereas the other half received phosphate buffered saline (PBS) pH 7.4 containing 8 g NaCl, 0.2 g KCl, 1.4 g Na2HPO4, 0.2 g KH2PO4 in. 800 mL ddH2O. For all groups, 4 replicates were run. Digital pictures were taken at 24, 48 and 72 hrs using an Olympus IX&1 inverted microscope at a magnification of 200× and analyzed using LabWorks 4.0 Image Acquisition and Analysis software (UltraViolet Products Ltd).
The effect of TCAP-1 on cell proliferation at each pH was examined by direct counts using a hemocytometer and indirectly by assessing mitochondrial activity using a colorimetric MTT (3-[4,5-dimethylthiazol-2-yl]-2,5-diphenyl tetrazolium bromide) assay on cultured N38 cells. For hemocytometer counts, the cultures were incubated for 24 and 48 hrs. The cells were suspended using 1 ml of 0.25% Trypsin with EDTA (Gibco-Invitrogen, Burlington, Canada), centrifuged at 1600 RPM for 4 min, and resuspended with PBS. The cells in 50 μl aliquots were vortexed and counted on a hemocytometer.

For assay [1], the system named is cells treated with 50 μM H2O2. Briefly: H2O2 toxicity MTT assay.
The next assay concerns superoxide dismutase. Briefly: Superoxide dismutase gene expression by real-time PCR. The following applies: p<0.01. A general note: In qPCR the cycle at which signal appears reflects the starting amount.
A further assay has as its system PARP. Briefly: PARP cleavage by immunoblot. The following applies: 48 hour; all pH treatments. The method, then: Using the same protocol, changes in PARP expression were determined at 48 hrs. The membrane was incubated with PARP primary antibody (Cell Signaling Technology, Beverly) at a titre of 1:100. The membranes were washed 3 times for 5 min with 10 ml of PBST followed by membrane incubation with anti-rabbit horseradish peroxidase (HRP)-conjugated secondary antibody (Amersham, Baie d'Urfé) at 1:3000 in 6 ml of PBST-milk with gentle agitation for 1 hr at RT. The membranes were then washed 3 times for 5 min with 10 ml of PBST then exposed to Kodak X-OMAT Blue scientific imaging film (Perkin Elmer Canada Inc, Vaudreuil-Dorion) for 30 min. Total optical density of the blots, were quantified using LabWorks 4.0 Image Acquisition and Analysis Software from Ultra-Violet Products Ltd. (UVP).

The next assay deals with catalase. Briefly: Catalase gene expression by real-time PCR. The following applies: p<0.001.
Another assay has as its system Phospho-Akt. Briefly: Phospho-Akt western blot. The following applies: all pH treatments; 48 hrs. The method, then: Western blots using Akt and phosphorylated Akt (P-Akt) primary antibodies were conducted on all conditions of the cultured N38 cells to determine whether TCAP was preventing cell death by phosphorylation. The same western blot procedure outlined above was repeated with an Akt primary antibody (Cell Signalling, Beverly) at a titer of 1:500, followed by membrane incubation with anti-rabbit HRP-conjugated secondary antibody (Amersham, Baie d'Urfé) at 1:3000, followed by exposure on Kodak X-OMAT Blue film (Perkin Elmer Canada Inc, Vaudreuil-Dorion) for 30 min. Phospho Akt expression at 48 hrs was determined using the method described above with a PAkt primary antibody (Cell Signalling 9271) at 1:1000 followed by membrane incubation with anti-rabbit HRP-conjugated secondary antibody (Amersham, Baie d'Urfé) at 1:2000 followed by exposure on Kodak X-OMAT Blue film (Perkin Elmer Canada Inc, Vaudreuil-Dorion) overnight. Cultured N38 cells were serum-starved for 48 hours in order to induce phosphorylation and following the same protocol above were loaded as a control. Total optical density of the blots, were quantified using LabWorks 4.0 Image Acquisition and Analysis Software from Ultra-Violet Products Ltd. (UVP).

For “teneurin C-terminus associated peptide [TCAP-1]”, the “caspase 3 cleavage product (17/19 kDa) on western blot” value with cleaved caspase 3 is given as “could not be observed”. The “total number of cells vs vehicle” value with N38 cells (24 hrs, any pH condition) was “no significant differences in the total number of cells”. In addition, the “total cell numbers relative to vehicle” value is “increased the number of cells” in the assay with N38 cells (pH 6.8); “inhibited the decrease in total cell numbers” in the assay on N38 cells (pH 6.8, listed as TCAP); “increased the number of cells” in the assay with N38 cells (pH 8.0); “inhibited the decrease in total cell numbers” in the assay on N38 cells (pH 8.0, listed as TCAP); “increased the number of cells” in the assay with N38 cells (pH 8.4); “inhibited the decrease in total cell numbers” with N38 cells (pH 8.4, listed as TCAP). Also, the “mitochondrial (MTT) activity vs vehicle” value in assay [1] (0 hours) is on record as “no effect”; in assay [1] (6 hours, p<0.001), “significantly increased mitochondrial activity”; in assay [1] (12 hours, p<0.001), “significantly increased mitochondrial activity”; in assay [1] (24 hours, p<0.05), “less significant effect”; in assay [1] (48 hours, p<0.001), “significantly increased mitochondrial activity”. In addition, the “MTT activity relative to vehicle” value in assay [1] (6 to 48 hours) is recorded as “significant increase in MTT activity”. The “superoxide dismutase gene expression vs vehicle” value with superoxide dismutase (pH 7.4) and in the assay with superoxide dismutase (pH 8.4) was “increase over the vehicle treated cells” each time. Also, the “PARP on western blot, vehicle vs TCAP” value in the assay with PARP is “no significant differences between vehicle and TCAP treated samples”. Besides, the “catalase mRNA induction” value in the assay with catalase (pH 8.0) amounted to 3 fold; in the assay with catalase (pH 8.4), 5 fold. In addition, the “Akt phosphorylation (serine 473) on western blot” value in the assay on Phospho-Akt is on record as “no bands in any samples; also recorded: no indication of AKT phosphorylation”.
